According to patent EP0322748B1, “Antibiotic NK86-0279, process for production of the same and application of the same” (NIPPON KAYAKU KABUSHIKI KAISHA, priority 1987, dated 1989):

Tested on: vascularization by the Ehrlich ascites tumor cells crude extract
Experiment: vascularization-inhibitory effect, corneal assay
Format: in vivo
Conditions: slow-releasing pellet in rabbit cornea, compared with a control group
Method: The vascularization-inhibitory effect of the compound of the present invention was examined by corneal assay reported by M.A. Gimbrone et al. (J. National Cancer Inst., 52, 413 (1974)). Namely, the center of the cornea of the eye of a rabbit was incised with a knife at a length of approximately 2 mm to thereby form a pouch. Then a slow-releasing pellet containing 100 µg of a crude extract of Ehrlich ascites tumor cells, which had been preliminarily prepared according to a method proposed by R. Langer et al. (Nature, 263, 797 […]), was introduced into the pouch. Further another slow-releasing pellet containing 0.3 to 81 µg of the compound of the present invention was introduced thereinto so as to contact these pellets with each other. Then the degree of vascularization was observed four, six, eight and ten days after the introduction.

CCC1C=CC=CCC(C)C(O)C(C)(O)C(=O)C(C)C(O)C(C)C(=O)C(C)C(O)C(C)C=CC(=O)OC2C(C)C(CC1)OC1(OC(CC(C)O)C(C)CC1=O)C2CC (centres unmarked) [NK86-0279]
degree of vascularization (1 µg or above): significantly retarded till the fourth day | degree of vascularization (1.7 µg or above): till the eighth day
